Source: ChEMBL document CHEMBL5154875, “Discovery of Potent Orally Bioavailable WD Repeat Domain 5 (WDR5) Inhibitors Using a Pharmacophore-Based Optimization” (J Med Chem, 2022)
≈ marks a conversion by molar mass, not a printed value.

Key:
[1] = tested on: MV4-11; experiment: Anti-proliferative activity against human MV4-11 cells assessed as inhibition of cell proliferation incubated for 5 days by Cell Titre Glo luminescent assay; format: functional; details: Homo sapiens, MV4-11, 120 h, time 5 day
[2] = tested on: K562; experiment: Anti-proliferative activity against human K562 cells assessed as inhibition of cell proliferation incubated for 5 days by Cell Titre Glo luminescent assay; format: functional; details: Homo sapiens, K562, 120 h, time 5 day
[3] = biological target: WD repeat-containing protein 5 (Homo sapiens, UniProt P61964); experiment: Competitive binding affinity to N-terminal 6xHis-SUMO-tagged human WDR5 (22 to 334 residues) expressed in Escherichia coli BL21-Gold (DE3) cells assessed as inhibition constant using 10-mer-Thr-FAM peptide as substrate incubated for 1 hr by Lantha Screen based TR-FRET assay
[4] = tested on: MOLM-13; experiment: Anti-proliferative activity against human MOLM-13 cells assessed as inhibition of cell proliferation incubated for 5 days by Cell Titre Glo luminescent assay; format: functional; details: Homo sapiens, MOLM-13, 120 h, time 5 day
[5] = AUC (0 to infinity) in CD-1 mouse at 3 mg/kg, iv measured 0.083 to 24 hrs post-treatment by LC-MS/MS analysis; format: ADME, organism-based; set-up: time upper 24 hrs, time lower 0.083 hrs, dose 3 mg/kg, route iv; details: in vivo; for AUC(0-inf): CD-1, mouse
[6] = Volume of distribution at steady state in CD-1 mouse at 3 mg/kg, iv measured 0.083 to 24 hrs post-treatment by LC-MS/MS analysis; format: ADME, organism-based; details: in vivo, time 0.083-24 hrs; for Vd: CD-1, mouse, read-out: Vdss
[7] = Cmax in CD-1 mouse at 10 mg/kg, po measured 0.083 to 24 hrs post-treatment by LC-MS/MS analysis; format: ADME, organism-based; set-up: time lower 0.083 hrs, dose 10 mg/kg, time upper 24 hrs, route po; details: in vivo
[8] = AUC (0 to infinity) in CD-1 mouse at 10 mg/kg, po measured 0.083 to 24 hrs post-treatment by LC-MS/MS analysis; format: ADME, organism-based; set-up: dose 10 mg/kg, time upper 24 hrs, time lower 0.083 hrs, route po; details: in vivo; for AUC(0-inf): CD-1, mouse
[9] = Half life in CD-1 mouse at 10 mg/kg, po measured 0.083 to 24 hrs post-treatment by LC-MS/MS analysis; format: ADME, organism-based; details: in vivo, time 0.083-24 hrs; for t1/2: mouse, po, 10 mg/kg; for half-life: CD-1, mouse
[10] = Oral bioavailability in CD-1 mouse at 10 mg/kg measured 0.083 to 24 hrs post-treatment by LC-MS/MS analysis; format: ADME, organism-based; details: in vivo, time 0.083-24 hrs; for bioavailability: CD-1, mouse
[11] = Kinetic solubility of compound in PBS at pH 7.4 at 100 uM incubated for 1 hr by UV-visible spectroscopy analysis; format: physicochemical; details: for solubility kinetic at 1 h, 100 µM: PBS, pH 7.4, read-out: Kinetic_solubility
[12] = Clearance in CD-1 mouse at 3 mg/kg, iv measured 0.083 to 24 hrs post-treatment by LC-MS/MS analysis; format: ADME, organism-based; details: in vivo, time 0.083-24 hrs
[13] = Metabolic stability of compound in rat liver microsome assessed as half life at 1 uM measured upto 45 mins by LCMS analysis; format: ADME, microsomes; details: microsomes, 0.75 h, 1 µM
[14] = Metabolic stability of compound in rat liver microsome assessed as intrinsic clearance at 1 uM measured upto 45 mins by LCMS analysis; format: ADME, microsomes; details: microsomes, 0.75 h, 1 µM

| Structure (SMILES) | GI50 [1] [nM] | GI50 [2] [nM] | Ki [3] [nM] | GI50 [4] [nM] | further results |
| --- | --- | --- | --- | --- | --- |
| Cc1ccnc(CN2CCc3c(cc(Cn4ccnc4C)cc3-c3cn(C)nc3C(F)(F)F)C2=O)c1 | 23 | 3600 | 0.02 | 33 |  |
| COc1cc(CN2CCc3c(cc(Cn4ccn(C)c4=N)cc3-c3ccc(F)cc3OC)C2=O)cc(OC)c1 | 210 | 18000 | 0.033 | 420 |  |
| CCn1cc(-c2cc(Cn3ccnc3)cc3c2CCN([C@H](C)c2cc(OC)ccn2)C3=O)c(C(F)(F)F)n1 | 39 | 12000 | 0.028 | 100 |  |
| COc1cc(CN2CCc3c(cc(Cn4ccnc4C)cc3-c3cn(C)nc3C(F)(F)F)C2=O)cc(OC)c1 | 32 | 3700 | < 0.02 | 110 |  |
| COc1cc(CN2CCc3c(cc(Cn4ccn(C)c4=N)cc3-c3ccncc3C)C2=O)cc(OC)c1 | 230 | > 30000 | 0.029 | 640 |  |
| COc1cc(CN2CCc3c(cc(Cn4ccn(C)c4=N)cc3-c3cn(C)nc3C)C2=O)cc(OC)c1 | 210 | > 30000 | 0.023 | 570 |  |
| COc1cc(CN2CCc3c(cc(Cn4ccnc4C(F)F)cc3-c3cn(C)nc3C(F)(F)F)C2=O)cc(OC)c1 | 12000 | > 30000 | > 6.7 | 20000 |  |
| COc1cc(CN2CCc3c(cc(Cn4cccn4)cc3-c3cn(C)nc3C(F)(F)F)C2=O)cc(OC)c1 | 22000 | > 30000 | > 6.7 | 20000 |  |
| COc1cc(CN2CCc3c(cc(Cn4ccn(C)c4=N)cc3-c3cn(C)nc3C(F)(F)F)C2=O)cc(OC)c1 | 39 | > 30000 | < 0.02 | 110 |  |
| COc1cc(CN2CCc3c(cc(Cn4ccn(C)c4=N)cc3-c3cccnc3C)C2=O)cc(OC)c1 | 1200 | > 30000 | 0.036 | 3900 |  |
| COc1cc(CN2CCc3c(cc(Cn4ccn(C)c4=N)cc3-c3cc(C)ncc3C)C2=O)cc(OC)c1 | 200 | > 30000 | < 0.02 | 560 |  |
| CCn1cc(-c2cc(Cn3ccnc3C)cc3c2CCN([C@H](c2cc(C)ccn2)C2CC2)C3=O)c(C(F)(F)F)n1 | 17 | 2500 | < 0.02 | 43 | AUC ([5]; mouse): 2075 ng·h/mL; Vdss ([6]; mouse, iv, 3 mg/kg): 1.1 L/kg; Cmax ([7]; mouse): 1083 ng/mL; AUC ([8]; mouse): 1000 ng·h/mL; t1/2 [9]: 1.2 h; F ([10]; mouse, po, 10 mg/kg): 15%; Kinetic_solubility ([11]; buffer, pH 7.4, 1 h, 100 µM): 66 µM |
| CCn1cc(-c2cc(Cn3ccnc3)cc3c2CCN([C@H](c2cc(OC)ccn2)C2CC2)C3=O)c(C(F)(F)F)n1 | 19 | 1500 | < 0.02 | 37 | t1/2 [9]: 1.2 h |
| CCn1cc(-c2cc(Cn3ccnc3C)cc3c2CCN(Cc2cc(OC)ccn2)C3=O)c(C(F)(F)F)n1 | 34 | 13000 | < 0.02 | 59 |  |
| CCn1cc(-c2cc(Cn3ccnc3C)cc3c2CCN([C@H](C)c2cc(OC)ccn2)C3=O)c(C(F)(F)F)n1 | 39 | 7800 | 0.029 | 110 |  |
| COc1cc(CN2CCc3c(cc(Cn4ccn(C)c4=N)cc3-c3cccnc3OC)C2=O)cc(OC)c1 | 560 | > 30000 | 0.055 | 1600 |  |
| Cc1cccc(CN2CCc3c(cc(Cn4ccnc4C)cc3-c3cn(C)nc3C(F)(F)F)C2=O)n1 | 170 | 13000 | 0.039 | 330 |  |
| COc1cc(CN2CCc3c(cc(Cn4ccn(C)c4=N)cc3-c3ccc(F)cc3O)C2=O)cc(OC)c1 | 88 | > 30000 | 0.035 | 220 |  |
| COc1cc(CN2CCc3c(cc(Cn4ccnc4C4CC4)cc3-c3cn(C)nc3C(F)(F)F)C2=O)cc(OC)c1 | 240 | 8500 | 0.028 | 710 |  |

| Structure (SMILES) | GI50 [1] [nM] | GI50 [2] [nM] | Ki [3] [nM] | GI50 [4] [nM] | further results |
| --- | --- | --- | --- | --- | --- |
| CCc1ccnc(CN2CCc3c(cc(Cn4ccnc4C)cc3-c3cn(CC)nc3C(F)(F)F)C2=O)c1 | 24 | 5600 | < 0.02 | 43 |  |
| COc1cc(CN2CCc3c(cc(Cn4ccnc4)cc3-c3cn(C)nc3C(F)(F)F)C2=O)cc(OC)c1 | 59 | 9100 | < 0.02 | 180 |  |
| CCn1cc(-c2cc(Cn3ccn(C)c3=N)cc3c2CCN(Cc2cc(OC)cc(OC)c2)C3=O)c(C(F)(F)F)n1 | 36 | > 30000 | < 0.02 | 110 |  |
| Cc1nccn1Cc1cc2c(c(-c3cn(C)nc3C(F)(F)F)c1)CCN(Cc1ccccn1)C2=O | 1500 | > 30000 | 0.23 | 3100 |  |
| Cc1cccnc1CN1CCc2c(cc(Cn3ccnc3C)cc2-c2cn(C)nc2C(F)(F)F)C1=O | 3000 | 22000 | 0.59 | 4700 |  |
| CCc1nccn1Cc1cc2c(c(-c3cn(C)nc3C(F)(F)F)c1)CCN(Cc1cc(OC)cc(OC)c1)C2=O | 94 | 7500 |  | 240 |  |
| CCc1ccnc(CN2CCc3c(cc(Cn4ccnc4C)cc3-c3cn(C)nc3C(F)(F)F)C2=O)c1 | 16 | 4100 | < 0.02 | 25 |  |
| COc1cc(CN2CCc3c(cc(Cn4ccn(C)c4=N)cc3-c3conc3C)C2=O)cc(OC)c1 | 850 | > 30000 | 0.046 | 2100 |  |
| Cc1cc(CN2CCc3c(cc(Cn4ccnc4C)cc3-c3cn(C)nc3C(F)(F)F)C2=O)ccn1 | 270 | 13000 | 0.064 | 550 |  |
| CCn1cc(-c2cc(Cn3ccnc3C)cc3c2CCN([C@@H](c2cc(OC)ccn2)C2CC2)C3=O)c(C(F)(F)F)n1 | 15 | 2600 |  | 36 | clearance [12]: 41 mL/min/kg; AUC(0-inf) [5]: 1240 ng·h/mL; Vd [6]: 1.6 L/kg; Cmax ([7]; CD-1, mouse, read-out: Cmax): 652 ng/mL; AUC(0-inf) [8]: 508 ng·h/mL; half-life [9]: 1.4 h; bioavailability [10]: 12%; solubility kinetic at 1 h, 100 µM [11]: 65 µM (≈ 36.7 µg/mL) |
| COc1cc(CN2CCc3c(cc(Cn4ccn(C)c4=N)cc3-c3cc(C)nn3C)C2=O)cc(OC)c1 | 85 | > 30000 | 0.025 | 270 |  |
| COc1cc(CN2CCc3c(cc(Cn4ccnc4C(C)C)cc3-c3cn(C)nc3C(F)(F)F)C2=O)cc(OC)c1 | 4700 | 6000 | 3.4 | 7700 |  |
| COc1ccnc(CN2CCc3c(cc(Cn4ccnc4C)cc3-c3cn(C)nc3C(F)(F)F)C2=O)c1 | 24 | 9500 | < 0.02 | 39 | t1/2 [13]: 3.2 min; CLH [14]: 220 µL/min/mg |
| COc1cc(CN2CCc3c(cc(Cn4cnnc4)cc3-c3cn(C)nc3C(F)(F)F)C2=O)cc(OC)c1 | 16000 | > 30000 | 6.5 | > 30000 |  |
| COc1cc(CN2CCc3c(cc(Cn4ccn(C)c4=N)cc3-c3c(C)nn(C)c3C)C2=O)cc(OC)c1 | 19000 | > 30000 | 0.21 | > 30000 |  |
| COc1cc(CN2CCc3c(cc(Cn4cccc4)cc3-c3cn(C)nc3C(F)(F)F)C2=O)cc(OC)c1 | 15000 | > 30000 | > 6.7 | 15000 |  |
| COc1cc(CN2CCc3c(cc(Cn4ccn(C)c4=N)cc3-c3cc(C)cnc3C)C2=O)cc(OC)c1 | 640 | > 30000 | 0.022 | 2400 |  |
| CCn1cc(-c2cc(Cn3ccnc3)cc3c2CCN([C@@H](c2cc(OC)ccn2)C2CC2)C3=O)c(C(F)(F)F)n1 | 13 | 3700 |  | 27 | clearance [12]: 26 mL/min/kg; AUC(0-inf) [5]: 1950 ng·h/mL; Vd [6]: 1.6 L/kg; Cmax ([7]; CD-1, mouse, read-out: Cmax): 2080 ng/mL; AUC(0-inf) [8]: 3980 ng·h/mL; half-life [9]: 1.3 h; bioavailability [10]: 61%; solubility kinetic at 1 h, 100 µM [11]: 60 µM (≈ 33 µg/mL) |
